Each structure is given as a SMILES string.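 96-well plates; 48 h exposure; 5 concentrations. Endpoints by linear interpolation between flanking doses. Not reached: highest tested concentration assigned. At the TGI there is no net growth.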

The results in this text go back to PubChem BioAssay (NCI).

Holding throughout (experiment): inhibition of tumour cell growth, NCI panel, 48 h
Assay [1] concerns ACHN renal.
Assay [2] relates to HOP-92 NSCLC.
The subject of assay [3] is HS 578T breast.
In assay [4] the test system is M14 melanoma.
The test system of assay [5] is MCF7 breast.
In assay [6] the test system is MDA-MB-435.
For assay [7], the system named is OVCAR-3 ovarian.
Assay [8] concerns RXF 393 renal.
In assay [9] the test system is SF-268 CNS.
Assay [10] has as its system SK-MEL-5 melanoma.
Assay [11] relates to SNB-19 CNS.
Assay [12] has as its system SR leukemia.
For assay [13], the system named is U251 CNS.
Assay [14] relates to UACC-257 melanoma.
Assay [15] has as its system HCC-2998 colon.
Assay [16] deals with MALME-3M melanoma.

Turning to `COc1ccc(NC(C)=O)c(C(=O)CCNC(C)=O)c1`, the TGI in assay [1], in assay [2], in assay [3], in assay [4], in assay [5] and in assay [6] was greater than 100 µM in each case. The TGI in [7], in [8], in assay [9], in [10], in [11] and in assay [12] was greater than 100 µM throughout. In addition, the TGI in assay [13] and in assay [14] was greater than 100 µM in each case.
On to `O=C(NCCCCNCCCNC(=O)C(F)(F)F)C(F)(F)F`, for which the TGI in assay [1], in assay [15], in assay [2], in assay [3], in assay [4] and in assay [5] was greater than 100 µM each time. In addition, the TGI in [6], in assay [7], in [8], in assay [9], in assay [10] and in assay [11] was greater than 100 µM each time. The TGI in assay [12], in [13] and in assay [14] was greater than 100 µM throughout.
For `NNC(=O)CCCCCCCC(=O)O`, the TGI in assay [1], in assay [15], in [2], in [3], in assay [4] and in assay [16] was greater than 100 µM throughout. For the same compound, the TGI in assay [5], in assay [6], in assay [7], in assay [10], in assay [11] and in assay [12] was greater than 100 µM each time. In addition, the TGI in [13] and in assay [14] was greater than 100 µM each time.
As for `c1ccc(-c2cc(-c3cc(-c4ccccc4)n[nH]3)[nH]n2)cc1`, the TGI in assay [1], in assay [15], in assay [3], in assay [4], in assay [16] and in [5] was greater than 100 µM in each case. Moreover, the TGI in assay [6], in assay [7], in assay [8], in assay [9], in [10] and in [11] was greater than 100 µM throughout. The TGI in [12], in assay [13] and in [14] was greater than 100 µM in each case.
Take `CCOC(=O)NNC1(SC)NC(=O)c2c(cc(Cl)oc2=O)O1` (stereo not given): the TGI in [1] stood at 4.79 µM; in assay [15], 16.1 µM; in assay [2], 4.63 µM; in [3], 12.3 µM; in assay [4], 11.7 µM; in [5] it was 5.84 µM. Further, the TGI in assay [6] was 17.6 µM; in [7], 10.9 µM; in [8], 6.93 µM; in [9], 10.7 µM; in [10], greater than 45.5 µM; in assay [11] it was 25.4 µM. Also, the values for the TGI in [12], in assay [13] and in assay [14] were 6.69 µM, 25.5 µM and 30.4 µM, respectively.
As for `Cc1cc2nc3c(C(O)CO)nn(-c4ccccc4)c3nc2cc1C` (stereo not given), the TGI in assay [1] was 32.1 µM; in assay [2], 45.4 µM; in assay [3], 70.9 µM; in [4], greater than 100 µM; in assay [5] it was 47.3 µM; in [6], 47.9 µM. Further, the TGI in [7] was 35.1 µM; in assay [8] it was 43.6 µM; in assay [9] it was 63.3 µM; in assay [10], greater than 100 µM; in assay [11], 56.1 µM; in assay [12], 33.4 µM. The TGI amounted to 38.4 µM in assay [13] and 48.1 µM in assay [14].
With `C=CCC1(O)c2cccc(O)c2C(=O)c2cccc(O)c21` (stereo not given), the TGI in assay [1] worked out at 69.2 µM; in assay [15], 30.3 µM; in [2], 42.3 µM; in assay [3] it was 41.8 µM; in [4], 32 µM; in assay [5], 76.9 µM. Further, the TGI in assay [6] worked out at 50.8 µM; in [7], 59.7 µM; in assay [8], 37 µM; in assay [9] it was 85.4 µM; in assay [10] it was 26.4 µM; in assay [12], 36.3 µM. In addition, the values for the TGI in assay [13] and in assay [14] were 45.5 µM and 38.7 µM, respectively.
For the compound `CCOP(=O)(OCC)C(Cc1ccccc1)N=C(c1ccccc1)c1ccccc1` (stereo not given), the TGI in [1] came to 28.6 µM; in assay [2], 27.5 µM; in assay [3], 26.6 µM; in [4], 30.4 µM; in assay [16], 40.9 µM; in assay [5], 31.2 µM. For the same compound, the TGI was 27.8 µM in assay [6]; 30.3 µM in assay [7]; 37.6 µM in assay [9]; 25.5 µM in [10]; 32.3 µM in [11]; greater than 100 µM in [12]. For the same compound, the TGI was 28.4 µM in [13] and 27.1 µM in assay [14].
On to `CO/N=C1/C(n2[nH]c(=O)n(-c3ccccc3)c2=O)C2C=CC1n1c(=O)n(-c3ccccc3)c(=O)n12` (stereo not given), for which the TGI in assay [15], in assay [3], in [4], in [16], in assay [5] and in assay [6] was greater than 100 µM each time. Moreover, the TGI in assay [7], in assay [8], in [9], in assay [10], in assay [11] and in [12] was greater than 100 µM in each case. For the same compound, the TGI in assay [13] and in [14] was greater than 100 µM in each case.
For `CCOC(=O)c1ccc(Nc2nc3ccc(C(F)(F)F)cc3nc2-c2ccccc2)cc1`, the TGI in assay [1], in assay [15], in assay [3], in assay [4], in assay [16] and in assay [5] was greater than 100 µM in each case. Moreover, the TGI in assay [6], in assay [7], in assay [8], in assay [9], in [10] and in assay [11] was greater than 100 µM each time. For the same compound, the TGI in assay [12], in [13] and in [14] was greater than 100 µM throughout.
`CC(C)(C)OC(=O)/C=C/C(=O)O/C=C/[N+](=O)[O-]`: the TGI in assay [1], in assay [15], in [2], in assay [3], in assay [4] and in assay [5] was greater than 100 µM in each case. In addition, the TGI in [6], in assay [7], in assay [8], in [9], in assay [10] and in [12] was greater than 100 µM throughout. In addition, the TGI in assay [13] and in assay [14] was greater than 100 µM throughout.
As for `N#Cc1nc(Cc2ccccc2)oc1N`, the TGI in assay [1], in assay [3], in assay [4], in assay [16], in assay [5] and in assay [6] was greater than 100 µM in each case. The TGI in assay [7], in assay [8], in [9], in assay [10], in assay [11] and in [12] was greater than 100 µM in each case. The TGI in assay [13] and in [14] was greater than 100 µM each time.
On to `CSc1cc(Cl)c(C)cc1S(=O)(=O)NC(=O)NNc1ccccn1`, for which the TGI in [1], in assay [15], in assay [3], in assay [4], in assay [16] and in [5] was greater than 100 µM each time. The TGI in assay [6], in assay [7], in [8], in assay [9], in assay [10] and in [11] was greater than 100 µM throughout. In addition, the TGI in assay [12] and in assay [13] was greater than 100 µM throughout.
As to `COC(=O)[C@H]1ON2O[C@@H](O[C@H]3CCCC[C@@H]3C(C)(C)c3ccccc3)C[C@@H]3CC[C@H]1[C@@]32C`, the TGI in assay [1], in assay [15], in assay [2], in [3], in [4] and in assay [5] was greater than 100 µM throughout. Moreover, the TGI in assay [6], in [7], in assay [8], in assay [9], in assay [10] and in assay [12] was greater than 100 µM each time. Besides, the TGI in assay [13] and in assay [14] was greater than 100 µM each time.
Turning to `C=CCOc1ccc(C2c3c([nH][nH]c3=O)CC(C)(O)C2C(=O)OC)cc1OC` (stereo not given), the TGI in assay [1], in assay [15], in [2], in [3], in assay [4] and in assay [16] was greater than 100 µM throughout. Further, the TGI in assay [5], in [6], in assay [7], in assay [9], in assay [10] and in assay [11] was greater than 100 µM each time. Moreover, the TGI in assay [12], in assay [13] and in assay [14] was greater than 100 µM throughout.
As for `CC1(C)SC2C(NC(=O)Cc3ccccc3)C(=O)N2C1C(=O)O` (stereo not given), the TGI in [1], in [2], in assay [3], in assay [4], in assay [16] and in [5] was greater than 100 µM each time. For the same compound, the TGI in assay [6], in assay [7], in assay [8], in assay [9], in [10] and in assay [11] was greater than 100 µM each time. Besides, the TGI in assay [12], in [13] and in assay [14] was greater than 100 µM in each case.
With `c1ccc2c(Cc3c[nH]c4ccccc34)c[nH]c2c1`, the TGI is greater than 100 µM in assay [1]; 35.6 µM in assay [2]; 63.3 µM in assay [3]; 34.1 µM in assay [4]; 51 µM in [16]; greater than 100 µM in assay [5]. The TGI came to 31.3 µM in assay [6]; 30.8 µM in assay [7]; 33.1 µM in assay [8]; 45.7 µM in [9]; 27.2 µM in assay [10]; 44.4 µM in [11]. The TGI in assay [12] is 34.2 µM; in assay [13], 37.2 µM; in assay [14], 34.5 µM.
`CCOC(=O)NC(N(C)C(C(C)C)P(=O)(OCC)OCC)(C(F)(F)F)C(F)(F)F` (stereo not given): the TGI in [1], in assay [2], in [3], in [4], in [16] and in [5] was greater than 100 µM in each case. Besides, the TGI in assay [6], in [7], in [8], in assay [9], in assay [10] and in assay [11] was greater than 100 µM each time. For the same compound, the TGI in [12], in assay [13] and in assay [14] was greater than 100 µM throughout.
In the case of `O=C1CNc2cc(N3CCN(c4cccc(C(F)(F)F)c4)CC3)ccc2N1`, the TGI in [1] is greater than 100 µM; in assay [15], greater than 100 µM; in [2], greater than 78.8 µM; in assay [3], greater than 100 µM; in [4], greater than 100 µM; in [16] it was 69.9 µM. Besides, the TGI in [5] was greater than 90.1 µM; in assay [6], greater than 100 µM; in [7], greater than 100 µM; in [9] it was greater than 100 µM; in assay [10] it was 40.3 µM; in assay [11] it was greater than 100 µM. For the same compound, the TGI in assay [12], in [13] and in [14] was greater than 100 µM throughout.
